Earlier results on one compound are cited in patent US6891077B2, “Fibrinogen bandages and arterial bleeding models and methods of making and using thereof” (priority 2001, dated 2005).

Structures are written as SMILES.

In this series the test system is coagulation and clot formation. The conditions noted are these: incorporated in or on fibrinogen dressings or bandages.

Take `NCCCCCC(=O)O` [ε-amino caproic acid]: the “Effect on coagulation and clot formation as compared to fibrinogen bandages alone” value was “decreased coagulation and clot formation”.
